# Values quoted from earlier work as cited in PMC11996792, “First-in-human study of CPL’116 – a dual JAK/ROCK inhibitor – in healthy subjects” (Frontiers in Pharmacology, 2025).
# Read-outs that look alike come from different tables or passages of the source.
structure (smiles),measurement,setting,value
CCS(=O)(=O)N1CC(CC#N)(n2cc(-c3ncnc4[nH]ccc34)cn2)C1 [baricitinib],mean half-life,"ref Shi et al., 2014",8.5 h
same,mean half-life,"ref Zhao et al., 2020",5.8 to 7.4 h
CC(C)NC(=O)COc1cccc(-c2nc(Nc3ccc4[nH]ncc4c3)c3ccccc3n2)c1 [belumosudil],mean half-life,"ref Schueller et al., 2024",7.5 to 10.9 h
O=S(=O)(c1cccc2c(O)nccc12)N1CCCNCC1 [hydroxyfasudil],mean half-life,"ref Wolff et al., 2024",5.5 to 5.7 h
C[C@@H]1CCN(C(=O)CC#N)C[C@@H]1N(C)c1ncnc2[nH]ccc12 [tofacitinib],mean half-life,"extended-release formulation, ref Lamba et al., 2016",5.9 h
same,mean half-life,"immediate formulation, ref Lamba et al., 2016",3.2 h
CC[C@@H]1CN(C(=O)NCC(F)(F)F)C[C@@H]1c1cnc2cnc3[nH]ccc3n12 [upadacitinib],mean half-life,"ref Mohamed et al., 2016",5.9 to 14.5 h
